System: subject one
Assay: Female Sexual Functioning Index (FSFI) self-report before and after 4-week oral treatment
Type: in vivo, human
Settings: for FSFI: confidence about becoming sexually aroused / FSFI: difficulty to become lubricated / FSFI: difficulty to maintain lubrication until completion / FSFI: difficulty to reach orgasm / FSFI: how often became lubricated / FSFI: how often felt sexual desire or interest / FSFI: how often felt sexually aroused / FSFI: how often maintained lubrication until completion / FSFI: how often reached orgasm / FSFI: how often satisfied with arousal / FSFI: level of sexual arousal / FSFI: level of sexual desire or interest / FSFI: satisfaction with ability to reach orgasm / FSFI: satisfaction with amount of emotional closeness with partner / FSFI: satisfaction with overall sexual life / FSFI: satisfaction with sexual relationship with partner: post-treatment FSFI
From the text: The “Female Sexual Functioning Index” or “FSFI” is a 19-item self-report inventory designed to assess female sexual function. It comprises six domains: desire (two items)], arousal (four items), lubrication (four items), orgasm, satisfaction, and pain (three items each).
The therapeutic efficacy of 3,4-diaminopyridine and its salts in the present methods can be determined by clinicians, for example, by using appropriate self-report inventories or questionnaires. In some embodiments, the therapeutic efficacy of 3,4-diaminopyridine, or a pharmaceutically acceptable thereof, in the present methods in female subjects can be assessed by the Female Sexual Functioning Index (FSFI) designed to measure sexual functioning in women. See, e.g., Rosen et al., Journal of Sex and Marital Therapy 26:191-208 (2000).
subject one self-reported their sexual functioning for the past 4 weeks using the FSFI questionnaire (“the pre-treatment FSFI”).
The subject then orally self-administered a total daily dose of 80 mg of 3,4-diaminopyridine phosphate salt for 4 weeks. The last dose of each day was self-administered at about 5:30 pm. The timing of their sexual activity, if any, was in the evening.
After the 4-week treatment period, the subject self-reported their sexual functioning for the past 4 weeks using the FSFI questionnaire (“the post-treatment FSFI”).
The subject then orally self-administered a total daily dose of 60 mg of 3,4-diaminopyridine phosphate salt for 4 weeks. The last dose of each day was self-administered at about 6 pm. The timing of their sexual activity, if any, was in the evening at 8-9 pm.
The subject then orally self-administered a total daily dose of 40 mg of 3,4-diaminopyridine phosphate salt for 4 weeks. The last dose of each day was self-administered at about 11 pm (5 mg). The timing of their sexual activity, if any, was in the morning, afternoon, and at night.

[1] = Example 1 subject one, total daily dose 80 mg orally for 4 weeks
[2] = Example 2 subject one, total daily dose 60 mg orally for 4 weeks
[3] = Example 3 subject one, total daily dose 40 mg orally for 4 weeks
[4] = four week course of an effective daily dose, general statement

SMILES: Nc1ccncc1N.O=P(O)(O)O [3,4-diaminopyridine phosphate salt]
- confidence while being treated (subject report) [1]: more confident
- emotional experience with partner (subject report) [1]: better
- time to reach orgasm (subject report) [1]: shorter
- FSFI: confidence about becoming sexually aroused [1]: very high
- FSFI: difficulty to become lubricated [1]: slightly difficult
- FSFI: difficulty to maintain lubrication until completion [1]: slightly difficult
- FSFI: difficulty to reach orgasm [1]: not difficult
- FSFI: how often became lubricated [1]: most times
- FSFI: how often felt sexual desire or interest [1]: almost always or always
- FSFI: how often felt sexually aroused [1]: almost always or always
- FSFI: how often maintained lubrication until completion [1]: most times
- FSFI: how often reached orgasm [1]: most times
- FSFI: how often satisfied with arousal [1]: most times
- FSFI: level of sexual arousal [1]: high
- FSFI: level of sexual desire or interest [1]: moderate
- FSFI: satisfaction with ability to reach orgasm [1]: very satisfied
- FSFI: satisfaction with amount of emotional closeness with partner [1]: very satisfied
- FSFI: satisfaction with overall sexual life [1]: very satisfied
- FSFI: satisfaction with sexual relationship with partner [1]: very satisfied
- confidence while being treated (subject report) [2]: more confident
- emotional experience with partner (subject report) [2]: better
- time to reach orgasm (subject report) [2]: shorter
- FSFI: confidence about becoming sexually aroused [2]: very high
- FSFI: difficulty to become lubricated [2]: not difficult
- FSFI: difficulty to maintain lubrication until completion [2]: not difficult
- FSFI: difficulty to reach orgasm [2]: not difficult
- FSFI: how often became lubricated [2]: almost always or always
- FSFI: how often felt sexual desire or interest [2]: almost always or always
- FSFI: how often felt sexually aroused [2]: most times
- FSFI: how often maintained lubrication until completion [2]: almost never or never
- FSFI: how often reached orgasm [2]: almost always or always
- FSFI: how often satisfied with arousal [2]: almost always or always
- FSFI: level of sexual arousal [2]: very high
- FSFI: level of sexual desire or interest [2]: very high
- FSFI: satisfaction with ability to reach orgasm [2]: very satisfied
- FSFI: satisfaction with amount of emotional closeness with partner [2]: very satisfied
- FSFI: satisfaction with overall sexual life [2]: very satisfied
- FSFI: satisfaction with sexual relationship with partner [2]: very satisfied
- orgasms experienced after taking the drug, not experienced before (subject report) [3]: multiple orgasms
- FSFI: confidence about becoming sexually aroused [3]: very high
- FSFI: difficulty to become lubricated [3]: not difficult
- FSFI: difficulty to maintain lubrication until completion [3]: not difficult
- FSFI: difficulty to reach orgasm [3]: not difficult
- FSFI: how often became lubricated [3]: almost always or always
- FSFI: how often felt sexual desire or interest [3]: almost always or always
- FSFI: how often felt sexually aroused [3]: almost always or always
- FSFI: how often maintained lubrication until completion [3]: almost always or always
- FSFI: how often reached orgasm [3]: almost always or always
- FSFI: how often satisfied with arousal [3]: almost always or always
- FSFI: level of sexual arousal [3]: very high
- FSFI: level of sexual desire or interest [3]: very high
- FSFI: satisfaction with ability to reach orgasm [3]: very satisfied
- FSFI: satisfaction with amount of emotional closeness with partner [3]: very satisfied
- FSFI: satisfaction with overall sexual life [3]: very satisfied
- FSFI: satisfaction with sexual relationship with partner [3]: very satisfied
- sexual functioning of subjects suffering from sexual dysfunction (daily oral administration, general statement): overall improvement
- orgasmic ability (FSFI before and after) [4]: increased orgasmic ability
- sexual desire (FSFI before and after) [4]: increased sexual desire
- sexual satisfaction (FSFI before and after) [4]: increased sexual satisfaction
